In one experiment the target is T1, PLXDC1 (Homo sapiens, UniProt Q8IUK5).
T1 construct: expressed in transfected cells
T1 sequence (Q8IUK5 19-500): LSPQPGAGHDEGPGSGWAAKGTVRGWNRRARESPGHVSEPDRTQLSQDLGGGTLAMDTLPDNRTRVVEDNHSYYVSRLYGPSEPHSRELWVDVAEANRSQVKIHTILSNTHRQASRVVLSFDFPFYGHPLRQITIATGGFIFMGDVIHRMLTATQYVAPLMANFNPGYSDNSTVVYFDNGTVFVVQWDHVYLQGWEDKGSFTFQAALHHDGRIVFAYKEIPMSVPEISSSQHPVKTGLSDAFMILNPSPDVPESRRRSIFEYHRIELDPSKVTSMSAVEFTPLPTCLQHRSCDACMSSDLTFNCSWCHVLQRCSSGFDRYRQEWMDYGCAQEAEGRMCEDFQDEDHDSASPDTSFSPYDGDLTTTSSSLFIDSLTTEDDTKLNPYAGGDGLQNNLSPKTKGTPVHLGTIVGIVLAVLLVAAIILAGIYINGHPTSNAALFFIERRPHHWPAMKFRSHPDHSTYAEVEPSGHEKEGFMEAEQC
In words: Gfi1b promotor luciferase receptor activation assay, PLXDC1-expressing cells (FIG. 18A, 19). The class given is cell-based. The note with it: compound treatments 1 day; basal activity defined as 1. From the text:
FIG. 18A-B show activation of PLXDC1 and PLXDC2 by small molecules. […] All compound treatments were done for 1 day. Basal promotor activity of the PLXDC1-expressing cells is defined as 1.
Basal promotor activity of the PLXDC1-expressing cells is defined as 1. The basal activity of PLXDC1-expressing cells (Control) are higher than cells without PLXDC1, consistent promotor activation by the ectopic expression of the receptor without ligands.
By linking its promotor to a luciferase reporter gene, this example developed a PLXDC1 receptor activation assay.

Experiment [1] relates to CT26.CL25 colon cancer tumor endothelial cells. In words: Colon CT26 ex vivo model of tumor angiogenesis. The class given is cell-based, mouse. The conditions noted are these: for cytotoxicity at 40 µM / cytotoxicity at 10 µM: Mus musculus, Endothelial cell, 48 h, read-out: Cell death. In outline: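 Pieces of CT26 mouse tumor (~0.075 mm³) embedded in Matrigel and cultured in endothelial growth medium at 37 °C, 5% CO2 until endothelial outgrowth appeared (about 7 days), then treated. About 48 h after drug addition, live/dead staining with fluorescein diacetate and propidium iodide was imaged in green and red channels.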

The test system of experiment [2] is LL/2 lung cancer tumor endothelial cells. In words: Lung LL2 ex vivo model of tumor angiogenesis. The class given is cell-based, mouse. The note with it: for 48 hrs (morphology observations): LL/2 tumor endothelial cells; for Cell death: drug treatment for two days, ratio of red area to total endothelial cell area; for cytotoxicity at 40 µM / cytotoxicity at 20 µM: Mus musculus, Endothelial cell, 48 h, read-out: Cell death. In outline:
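LL2 mouse tumor fragments (~0.075 mm³) embedded in Matrigel and cultured in endothelial growth medium at 37 °C until endothelial outgrowth (~4 days) before treatment. Cell death assessed e.g. 48 h after drug by fluorescein diacetate (live)/propidium iodide (dead) staining and red/green fluorescence imaging.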

The values that follow come from patent US20250230226A1, “PLXDC1/PLXDC2 ACTIVATORS AND THEIR USE IN THE TREATMENT OF BLOOD VESSEL DISORDERS” (THE REGENTS OF THE UNIVERSITY OF CALIFORNIA, priority 2019, published 2025).

Turning to `O=c1[nH]cc(F)c(=O)[nH]1` [Fluorouracil, 5-fluorouracil, reference compound], the “Gfi1b promotor activity in PLXDC1-expressing cells” value at PLXDC1 is “does not activate this promoter”.
As for `COc1ccc(S(=O)(=O)c2cnc3ccc(OC(F)(F)F)cc3c2NN2CCN(C)CC2)cc1OC` [Compound 88], in experiment [1] (Conc. 40 μm), the “48 hrs (morphology observations after 48 hours)” value is reported as “*** (100% of endothelial cells vesicularize in cell shape)”. For the same compound, the cytotoxicity at 40 µM in experiment [1] came to 60%. Also, in experiment [2] (40 μm), the “48 hrs (morphology observations)” value is given as 0 and the Cell death came to 70%.
In the case of `COc1ccc(S(=O)(=O)c2cnc3ccc(OC(F)(F)F)cc3c2N(CCO)CCO)cc1OC` [Compound 72], the “48 hrs (morphology observations after 48 hours)” value in experiment [1] (Conc. 40 μm) came to 0. Further, the cytotoxicity at 40 µM in experiment [1] worked out at 0%. Besides, the Cell death in experiment [2] (40 μm) was 20%.
On to `CCN(CC)CCNC(=O)c1ccc2ncc(S(=O)(=O)c3ccc(OC)cc3)c(N3CCCN(C)CC3)c2c1` [Compound 166], for which the “48 hrs (morphology observations after 48 hours)” value in experiment [1] (Conc. 40 μm) is “*** (100% of endothelial cells vesicularize in cell shape)”. The cytotoxicity at 40 µM in experiment [1] was 60%. Also, in experiment [2] (40 μm), the “48 hrs (morphology observations)” value is given as 0 and the Cell death was 10%.
For the compound `CCc1ccc(S(=O)(=O)c2cnc3ccc(OC)cc3c2-n2cncn2)cc1` [Compound 79], in experiment [1] (Conc. 10 μm), the “48 hrs (morphology observations after 48 hours)” value is reported as “*** (100% of endothelial cells vesicularize in cell shape)”. Further, the cytotoxicity at 10 µM in experiment [1] was found to be 100%. Further, the Cell death in experiment [2] (20 μm) was 20%.
Consider `CN1CCN(Nc2c(S(=O)(=O)c3ccc(OC(F)(F)F)cc3)cnc3ccc(OC(F)(F)F)cc23)CC1` [Compound 90], for which the “48 hrs (morphology observations after 48 hours)” value in experiment [1] (Conc. 40 μm) was 0. Besides, the cytotoxicity at 40 µM is 0% in experiment [1] and 10% in experiment [2]. Moreover, the “48 hrs (morphology observations)” value in experiment [2] (40 μm) is recorded as 0.
For the compound `CCc1ccc(S(=O)(=O)c2cnc3ccc([N+](=O)[O-])cc3c2N2CCC(N3CCCCC3)CC2)cc1` [Compound 77], the “48 hrs (morphology observations after 48 hours)” value in experiment [1] (Conc. 40 μm) amounted to 0. In addition, in experiment [1], the cytotoxicity at 40 µM was found to be 40%. In experiment [2] (40 μm), the Cell death is listed as 80%.
Regarding `CCCCCCCOc1ccc(S(=O)(=O)c2cnc3ccc(SC)cc3c2N2CCC(N3CCCCC3)CC2)cc1` [Compound 219], the “48 hrs (morphology observations after 48 hours)” value in experiment [1] (Conc. 40 μm) was “*** (100% of endothelial cells vesicularize in cell shape)”. Besides, the cytotoxicity at 40 µM in experiment [1] was determined as 90%. Further, in experiment [2] (40 μm), the “48 hrs (morphology observations)” value was “**** (100% of endothelial cells vesicularize in cell shape and look flattened in morphology (indicating disintegration of the cell body))”; the Cell death is reported as 60%.
`CCc1ccc(S(=O)(=O)c2cnc3ccc(OC(F)(F)F)cc3c2N(C)Cc2ccccc2)cc1` [Compound 49]: the “48 hrs (morphology observations after 48 hours)” value in experiment [1] (Conc. 40 μm) is 0. In experiment [1], the cytotoxicity at 40 µM turned out to be 10%. Also, the Cell death in experiment [2] (40 μm) was 30%.
With `CCOC(=O)c1ccc2ncc(S(=O)(=O)c3ccc(CC)cc3)c(N3CCC(N4CCCCC4)CC3)c2c1` [Compound 64], the “48 hrs (morphology observations after 48 hours)” value in experiment [1] (Conc. 40 μm) is recorded as “*** (100% of endothelial cells vesicularize in cell shape)”. Besides, the cytotoxicity at 40 µM in experiment [1] and in experiment [2] was 100% each time. The “48 hrs (morphology observations)” value in experiment [2] (40 μm) was “*** (more than 50% but less than 100% of endothelial cells vesicularize in cell shape)”.
As for `CCCCCCCOc1ccc(S(=O)(=O)c2cnc3ccc(SC)cc3c2N2CCCN(C)CC2)cc1` [Compound 218], the “48 hrs (morphology observations after 48 hours)” value in experiment [1] (Conc. 40 μm) is given as “*** (100% of endothelial cells vesicularize in cell shape)”. Moreover, the cytotoxicity at 40 µM in experiment [1] was determined as 90%. In addition, in experiment [2] (40 μm), the “48 hrs (morphology observations)” value is “**** (100% of endothelial cells vesicularize in cell shape and look flattened in morphology (indicating disintegration of the cell body))”; the Cell death is given as 100%.
Consider `CCCCOc1ccc(S(=O)(=O)c2cnc3ccc(C(=O)OCC)cc3c2N2CCC(N3CCCCC3)CC2)cc1` [Compound 157], for which the “48 hrs (morphology observations after 48 hours)” value in experiment [1] (Conc. 40 μm) was “**** (100% of endothelial cells vesicularize in cell shape and look flattened in morphology (indicating disintegration of the cell body))”. The cytotoxicity at 40 µM in experiment [1] was found to be 60%. For the same compound, in experiment [2] (40 μm), the “48 hrs (morphology observations)” value is “*** (more than 50% but less than 100% of endothelial cells vesicularize in cell shape)” and the Cell death amounted to 100%.
For the compound `CCCCOc1ccc(S(=O)(=O)c2cnc3ccc(C(=O)NCCO)cc3c2N2CCC(N3CCCCC3)CC2)cc1` [Compound 202], the “48 hrs (morphology observations after 48 hours)” value in experiment [1] (Conc. 40 μm) was determined as 0. Moreover, the cytotoxicity at 40 µM in experiment [1] amounted to 10%; in experiment [2], 30%.
In the case of `COc1ccc(S(=O)(=O)c2cnc3cc(OC)c(OC)cc3c2-n2cncn2)cc1OC` [Compound 96], in experiment [1] (Conc. 10 μm), the “48 hrs (morphology observations after 48 hours)” value worked out at 0. Besides, in experiment [1], the cytotoxicity at 10 µM turned out to be 0%. In experiment [2], the cytotoxicity at 20 µM came out at 0%.
Consider `CCCCOc1ccc(S(=O)(=O)c2cnc3ccc(SC)cc3c2N2CCC(N3CCCCC3)CC2)cc1` [Compound 159], for which, in experiment [1] (Conc. 40 μm), the “48 hrs (morphology observations after 48 hours)” value was “**** (100% of endothelial cells vesicularize in cell shape and look flattened in morphology (indicating disintegration of the cell body))”. Besides, the cytotoxicity at 40 µM in experiment [1] and in experiment [2] was 100% each time. Further, the “48 hrs (morphology observations)” value in experiment [2] (40 μm) was “**** (100% of endothelial cells vesicularize in cell shape and look flattened in morphology (indicating disintegration of the cell body))”.
With `COc1ccc(S(=O)(=O)c2cnc3ccc(OC(F)(F)F)cc3c2-n2cncn2)cc1OC` [Compound 89], in experiment [1] (Conc. 10 μm), the “48 hrs (morphology observations after 48 hours)” value is “*** (100% of endothelial cells vesicularize in cell shape)”. In experiment [1], the cytotoxicity at 10 µM was found to be 100%. In addition, the “48 hrs (morphology observations)” value in experiment [2] (20 μm) is “*** (more than 50% but less than 100% of endothelial cells vesicularize in cell shape)”. Moreover, in experiment [2], the cytotoxicity at 20 µM amounted to 100%.
With `CCc1ccc(S(=O)(=O)c2cnc3ccc(OC(F)(F)F)cc3c2N2CCC3(CC2)OCCO3)cc1` [Compound 52], the “48 hrs (morphology observations after 48 hours)” value in experiment [1] (Conc. 40 μm) worked out at 0. The cytotoxicity at 40 µM in experiment [1] is 0%. For the same compound, in experiment [2] (40 μm), the Cell death is 50%.
Regarding `CCc1ccc(S(=O)(=O)c2cnc3ccc(OC(F)(F)F)cc3c2N2CCC(N3CCC(O)CC3)CC2)cc1` [Compound 102], in experiment [1] (Conc. 40 μm), the “48 hrs (morphology observations after 48 hours)” value is reported as 0. Moreover, the cytotoxicity at 40 µM in experiment [1] came to 5%. The “48 hrs (morphology observations)” value in experiment [2] (20 μm) was 0. Besides, the cytotoxicity at 20 µM in experiment [2] is 20%.
Turning to `CCc1ccc(S(=O)(=O)c2cnc3ccc(OC(F)(F)F)cc3c2N2CCCN(CCN(CC)CC)CC2)cc1` [Compound 100], in experiment [1] (Conc. 40 μm), the “48 hrs (morphology observations after 48 hours)” value is “**** (100% of endothelial cells vesicularize in cell shape and look flattened in morphology (indicating disintegration of the cell body))”. The cytotoxicity at 40 µM in experiment [1] and in experiment [2] was 100% in each case. Further, in experiment [2] (40 μm), the “48 hrs (morphology observations)” value was “**** (100% of endothelial cells vesicularize in cell shape and look flattened in morphology (indicating disintegration of the cell body))”.
Turning to `CCOC(=O)c1ccc2ncc(S(=O)(=O)c3ccc(CC)cc3)c(N3CCCN(C)CC3)c2c1` [Compound 63], in experiment [1] (Conc. 40 μm), the “48 hrs (morphology observations after 48 hours)” value was “*** (100% of endothelial cells vesicularize in cell shape)”. The cytotoxicity at 40 µM in experiment [1] is 70%. The Cell death in experiment [2] (40 μm) was 50%.
